The values that follow come from publication PMC7730205, “Different Sensitivity of Control and MICU1- and MICU2-Ablated Trypanosoma cruzi Mitochondrial Calcium Uniporter Complex to Ruthenium-Based Inhibitors” (International Journal of Molecular Sciences, 2020).

Common to all, as to type: cell-based, Trypanosoma cruzi
In series [1] the test system is T. cruzi epimastigotes. The series can be described thus: Epimastigote growth in LIT medium. The note with it: 1 µM, 5 µM and 10 µM. The protocol: We analyzed the growth rate of epimastigotes in LIT medium at different Ru265 concentrations (1 µM, 5 µM, and 10 µM). […] The presence of metabolic inhibitors affects attachment and invasion of T. cruzi trypomastigotes to mammalian cells since these are an active process which depends on the expenditure of parasite energy. Preincubation of trypomastigotes for 30 min with antimycin A, which blocks electron transport from cytochrome b to c1, decreased the ability of trypomastigotes to attach to glutaraldehyde-fixed cells (Figure 4b) and invade intact host cells (Figure 4c).
Figure 4 Effect of Ru265 on Trypanosoma cruzi. (a) Effect of Ru265 on epimastigote growth. […] After 1 h of incubation at 37 °C, the cells were washed, and the number of attached trypomastigotes was counted. […] After 4 h of incubation at 37 °C, the cells were washed, and the number of intracellular parasites was counted. […] (f) Routine respiration (initial oxygen flux values), leak respiration after the addition of 0.5 µg/mL of oligomycin A, and electron transfer system (ETS) capacity after the sequential additions of FCCP (0.2 μM each) were measured for each condition. […] (g) Representative experiment showing mitochondrial Ca^2+ uptake by intact epimastigotes in relative fluorescence units (RFU). […] (h) Changes in fluorescence (before and after ionomycin addition) from three experiments like that shown in panel (g). […]

Series [2] deals with T. cruzi epimastigotes (intact, non-permeabilized). The experiment in a line: Mitochondrial Ca2+ uptake in intact epimastigotes using Rhod-2 AM. The procedure:
(§1) Figure 4 Effect of Ru265 on Trypanosoma cruzi. (a) Effect of Ru265 on epimastigote growth. Growth of control epimastigotes in LIT medium in the presence of 1 μM, 5 μM, and 10 μM Ru265. (b) Effect of Ru265 on trypomastigote attachment. Trypomastigotes were pretreated for 30 min with 1 μM antimycin A (AA) or 10 μM Ru265 and added to glutaraldehyde-fixed Vero cells. After 1 h of incubation at 37 °C, the cells were washed, and the number of attached trypomastigotes was counted. […] (c) Effect of Ru265 on trypomastigotes infection. Trypomastigotes were pretreated for 30 min with 1 μM antimycin A or 10 μM Ru265 and added to Vero cells. After 4 h of incubation at 37 °C, the cells were washed, and the number of intracellular parasites was counted. […] (f) Routine respiration (initial oxygen flux values), leak respiration after the addition of 0.5 µg/mL of oligomycin A, and electron transfer system (ETS) capacity after the sequential additions of FCCP (0.2 μM each) were measured for each condition. […] (g) Representative experiment showing mitochondrial Ca^2+ uptake by intact epimastigotes in relative fluorescence units (RFU). […] (h) Changes in fluorescence (before and after ionomycin addition) from three experiments like that shown in panel (g). […]

Series [3] relates to T. cruzi epimastigotes. The experiment in a line: Cellular respiration of epimastigotes (high-resolution respirometry). The procedure: as §1

As to `N.N.N.N.N.N.N.N.[Cl][Ru+3].[N-]=[Ru][Cl]` [Ru265], the Toxicity to epimastigotes result with T. cruzi epimastigotes [1] is “nontoxic at the concentrations tested”. Further, the “Effect on growth rate of epimastigotes” value with T. cruzi epimastigotes [1] (control epimastigotes) is “does not affect the growth rate”. The “Amount of Ca2+ taken up by mitochondria of intact cells (Rhod-2 fluorescence)” value in series [2] (50 µM Ru265 for 30 min, nigericin + ionomycin, three experiments) was “no significant difference”. For the same compound, the “Permeability in trypanosomes (inferred from lack of effect on intact cells)” value in series [2] (intact epimastigotes) is “low permeability”. Further, the “Uncoupled respiratory control rate (state 3u / rate with oligomycin)” value in the series with T. cruzi epimastigotes [3] (10 µM Ru265, n = 3) is 1.70 ± 0.04. Moreover, the “Effect on O2 consumption level” value with T. cruzi epimastigotes [3] (control epimastigotes, 10 µM Ru265, compared with parasites without inhibitor) is listed as “did not affect O2 consumption level”.
